Results reported in ChEMBL document CHEMBL1201862, “PubChem BioAssay data set” (2004).
Calls of active or inactive are those of the source.

Tests used:
[1] = A549 cell cytotoxicity, dose response, cytotoxicity control, plate reader, cherry-pick, antagonist series (AID 743412); format: functional, cell-based
[2] = biological target: T1, Ubiquitin-conjugating enzyme E2 N (Homo sapiens, UniProt P61088); format: functional;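 also: Dose-response confirmation in a TR-FRET assay detecting UBC13-driven polyubiquitin chain formation, inhibition measured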
T1 sequence (P61088 whole entry): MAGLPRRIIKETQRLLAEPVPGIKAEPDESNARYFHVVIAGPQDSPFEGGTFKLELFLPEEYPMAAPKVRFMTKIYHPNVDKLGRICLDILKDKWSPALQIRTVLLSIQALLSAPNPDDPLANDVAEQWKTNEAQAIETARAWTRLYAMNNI

[3] = HepG2 cell cytotoxicity, dose response, cytotoxicity control for Shn3 inhibitor project, CellTiter-Glo, cherry-picked (AID 624134); format: functional, cell-based
[4] = MC4R antagonists, dose response, counter-screen for LGR2 antagonist project, cell-based, plate reader, cherry pick (AID 743444); format: functional;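 also: transfected HEK 293 cells stimulated with alpha-MSH peptide; potency of inhibitors of the alpha-MSH evoked signal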
[5] = biological target: T2, Calpain-2 catalytic subunit (Sus scrofa, UniProt P43367); experiment: pig calpain II inhibitor potency, dose response, biochemical, fluorogenic peptide substrate (AID 1420); format: functional
T2 sequence (P43367 whole entry): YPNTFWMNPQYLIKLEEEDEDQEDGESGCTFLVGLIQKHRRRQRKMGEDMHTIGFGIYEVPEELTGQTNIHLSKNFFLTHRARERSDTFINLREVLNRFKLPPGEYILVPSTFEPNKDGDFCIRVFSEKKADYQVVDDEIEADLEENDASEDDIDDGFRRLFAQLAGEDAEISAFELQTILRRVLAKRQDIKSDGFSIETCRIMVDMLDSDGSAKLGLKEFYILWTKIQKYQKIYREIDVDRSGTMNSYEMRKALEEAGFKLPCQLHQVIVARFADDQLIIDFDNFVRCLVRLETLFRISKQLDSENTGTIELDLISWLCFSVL

[6] = control 3'UTR Renilla luciferase suppression, dose response, counter-screen for Shn3 inhibitor project, cell-based, Clone20-Shn3RL, cherry-picked (AID 624133); format: functional
[7] = Shn3 3'UTR reporter inhibitors, dose response, cell-based, Clone20 osteoblasts, firefly luciferase, cherry-picked (AID 624132); format: functional;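 also: firefly luciferase luminescence from reporter carrying the Shn3 3'UTR in osteoblasts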
HEK293 [8] = experiment: HEK cell cytotoxicity by LDH release, dose response, cytotoxicity control for IDE activator project, fluorescence, HEK cells (AID 588440); format: functional, cell-based; settings: Homo sapiens;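 also: cytotoxicity by LDH release measuring loss of membrane integrity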
HEK293 [9] = experiment: optical interference in Abeta FP readout, dose response, artefact control for IDE activator project, biochemical, fluorescence polarization (AID 588442); format: functional, cell-based; settings: Homo sapiens
[10] = HEK293 cell cytotoxicity, dose response, cytotoxicity control, plate reader, cherry-picked samples (AID 743446); format: functional, cell-based
X-box-binding protein 1 = X-box-binding protein 1 (Homo sapiens, UniProt P17861); format: functional, Cricetulus griseus;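 also: confirmatory dose-response counter-screen serving a CHOP assay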
X-box-binding protein 1, sequence (P17861 whole entry): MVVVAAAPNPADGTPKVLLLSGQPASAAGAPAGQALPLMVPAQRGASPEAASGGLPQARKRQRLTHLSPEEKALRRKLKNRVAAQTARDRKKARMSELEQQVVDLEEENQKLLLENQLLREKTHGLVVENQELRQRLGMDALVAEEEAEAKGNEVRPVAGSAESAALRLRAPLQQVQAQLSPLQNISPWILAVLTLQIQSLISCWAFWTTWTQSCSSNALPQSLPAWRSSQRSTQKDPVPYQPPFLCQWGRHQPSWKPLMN

With `Cl.N=c1n(Cc2ccccc2)c2ccccc2n1CC(O)COc1ccc(Cl)cc1Cl` (stereo unspecified) the AC50 [1] was 6.26 µM (active), the IC50 [2] was > 20 µM (inactive) and the AC50 [3] was 14.3 µM (active). The AC50 [4] was 26.6 µM (active), the IC50 [5] was 33.4 µM (not active) and the AC50 [6] was 5.16 µM (active). For the same compound, the AC50 [7] was 2.89 µM (active), the IC50 (HEK293 [8]) was 8.27 µM (active) and the EC50 (HEK293 [9]) was > 54.7 µM (inactive). For the same compound, the AC50 [10] was 12.7 µM (active) and the “Absolute IC50 (XBP1)” value (X-box-binding protein 1) was 10 µM.
